The results in this text go back to patent US9834571B2, “Compounds for inhibiting cell proliferation in EGFR-driven cancers” (ARIAD Pharmaceuticals, Inc., priority 2012, dated 2017).

Like-named read-outs stand apart in the source and are kept apart here. Bounds are passed on as bounds.

The IC50 is the concentration that inhibits the measured activity by half.

Assay [1] addresses human EGFR (native sequence) (Homo sapiens, UniProt P00533). Put plainly: Kinase inhibitory activity against human EGFR (native sequence). In kind it is biochemical. The settings on record: 10 μM ATP, read-out: IC50 for kinase inhibition, EGFR. Here is the method: (§1) Kinase inhibitory activity of the compounds was measured against human EGFR (native sequence) and against EGFR bearing the L858R mution and the L858R/T790M double mutation (EGFR, L858R, and L858R/T790M, respectively in Table 1). Additional assays can be conducted with EGFR deletion mutants such as delE746-A750 with or without the additional T790M mutation. Assay conditions included 10 pt curves with 3 μM top concentration (singlicates) and 10 μM ATP.

Assay [2] deals with EGFR L858R (Homo sapiens, UniProt P00533, L858R). Put plainly: Kinase inhibitory activity against EGFR bearing the L858R mutation. In kind it is biochemical. The following applies: 10 μM ATP, read-out: IC50 for kinase inhibition, EGFR L858R. How it is done: as §1
EGFR L858R, sequence (P00533 25-1210 L858R): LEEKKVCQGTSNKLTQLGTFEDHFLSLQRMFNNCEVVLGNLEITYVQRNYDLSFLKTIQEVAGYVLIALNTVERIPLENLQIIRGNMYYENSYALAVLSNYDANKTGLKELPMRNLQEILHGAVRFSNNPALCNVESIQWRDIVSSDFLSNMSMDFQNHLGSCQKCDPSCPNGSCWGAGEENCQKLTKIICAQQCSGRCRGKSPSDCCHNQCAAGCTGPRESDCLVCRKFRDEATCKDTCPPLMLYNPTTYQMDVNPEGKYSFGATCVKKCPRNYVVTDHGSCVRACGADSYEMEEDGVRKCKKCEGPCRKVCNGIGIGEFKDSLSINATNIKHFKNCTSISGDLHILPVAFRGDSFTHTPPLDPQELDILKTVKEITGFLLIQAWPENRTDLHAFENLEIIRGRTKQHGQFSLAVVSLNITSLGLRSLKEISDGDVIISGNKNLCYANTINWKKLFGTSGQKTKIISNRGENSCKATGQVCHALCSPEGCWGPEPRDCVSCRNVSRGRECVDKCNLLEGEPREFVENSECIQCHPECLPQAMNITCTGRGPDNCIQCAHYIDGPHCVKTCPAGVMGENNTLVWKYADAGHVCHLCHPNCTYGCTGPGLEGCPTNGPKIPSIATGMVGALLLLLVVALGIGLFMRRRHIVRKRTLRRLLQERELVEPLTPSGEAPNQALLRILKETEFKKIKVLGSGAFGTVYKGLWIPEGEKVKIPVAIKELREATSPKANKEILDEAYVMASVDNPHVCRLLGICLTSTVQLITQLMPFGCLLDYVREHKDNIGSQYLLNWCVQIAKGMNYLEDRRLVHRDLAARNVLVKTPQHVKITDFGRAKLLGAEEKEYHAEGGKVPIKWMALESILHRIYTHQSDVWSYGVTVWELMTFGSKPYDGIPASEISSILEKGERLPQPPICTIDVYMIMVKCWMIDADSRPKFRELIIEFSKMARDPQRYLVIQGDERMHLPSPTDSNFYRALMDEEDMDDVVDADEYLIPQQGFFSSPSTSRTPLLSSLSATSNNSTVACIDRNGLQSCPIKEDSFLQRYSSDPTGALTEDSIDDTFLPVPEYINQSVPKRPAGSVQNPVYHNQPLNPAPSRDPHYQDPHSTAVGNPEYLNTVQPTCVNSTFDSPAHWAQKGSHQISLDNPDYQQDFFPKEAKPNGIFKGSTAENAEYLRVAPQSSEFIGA
In assay [3] the target is EGFR L858R/T790M (Homo sapiens, UniProt P00533, L858R/T790M). Nature of the assay: Kinase inhibitory activity against EGFR bearing the L858R/T790M double mutation. The format is biochemical. The following applies: 10 μM ATP, read-out: IC50 for kinase inhibition, EGFR L858R T790M. How it is done: as §1
EGFR L858R/T790M, sequence (P00533 25-1210 T790M/L858R): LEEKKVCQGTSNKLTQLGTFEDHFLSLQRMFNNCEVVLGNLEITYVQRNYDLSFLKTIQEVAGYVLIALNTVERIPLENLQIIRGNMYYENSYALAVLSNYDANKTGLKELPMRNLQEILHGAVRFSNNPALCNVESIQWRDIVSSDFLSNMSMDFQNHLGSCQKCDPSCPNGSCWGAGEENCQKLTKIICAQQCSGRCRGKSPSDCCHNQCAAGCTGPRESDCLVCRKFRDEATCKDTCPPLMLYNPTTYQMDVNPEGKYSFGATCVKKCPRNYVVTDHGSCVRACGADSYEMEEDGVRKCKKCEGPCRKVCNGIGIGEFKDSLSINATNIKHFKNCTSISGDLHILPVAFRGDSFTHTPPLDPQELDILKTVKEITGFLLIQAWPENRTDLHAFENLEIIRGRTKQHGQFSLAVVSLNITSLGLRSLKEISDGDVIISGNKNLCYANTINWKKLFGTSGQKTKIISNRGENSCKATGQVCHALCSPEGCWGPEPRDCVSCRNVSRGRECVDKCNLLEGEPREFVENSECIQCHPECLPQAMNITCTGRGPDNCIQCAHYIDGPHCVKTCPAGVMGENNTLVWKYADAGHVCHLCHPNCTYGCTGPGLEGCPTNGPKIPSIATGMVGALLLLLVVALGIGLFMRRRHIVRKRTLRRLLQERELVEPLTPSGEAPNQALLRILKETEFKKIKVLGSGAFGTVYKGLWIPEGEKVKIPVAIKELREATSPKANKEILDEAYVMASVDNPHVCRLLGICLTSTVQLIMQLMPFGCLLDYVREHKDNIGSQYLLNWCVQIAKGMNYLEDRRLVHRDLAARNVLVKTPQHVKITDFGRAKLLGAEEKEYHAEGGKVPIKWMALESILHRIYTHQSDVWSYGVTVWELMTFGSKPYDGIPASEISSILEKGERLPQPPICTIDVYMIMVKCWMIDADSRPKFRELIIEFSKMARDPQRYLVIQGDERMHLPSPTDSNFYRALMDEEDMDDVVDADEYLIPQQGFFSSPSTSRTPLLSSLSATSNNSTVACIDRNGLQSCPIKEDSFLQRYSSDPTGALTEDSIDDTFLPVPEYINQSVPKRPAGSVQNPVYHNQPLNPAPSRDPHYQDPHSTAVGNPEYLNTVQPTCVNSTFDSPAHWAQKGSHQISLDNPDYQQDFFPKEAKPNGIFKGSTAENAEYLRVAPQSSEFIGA
Assay [4] deals with T1, BaF3 cells expressing the target EGFR mutations (Homo sapiens, UniProt P00533, T790M, cells depend on it, form not given).
T1 construct: IC50, BAF3 EGFR DEL T790M PURO POOL; other: BAF3 EGFR DEL T790M PURO POOL cells, MTT; other: BAF3 EGFR DEL T790M PURO POOL cells; MTT
Put plainly: Antiproliferative activity (MTT) against BaF3 cells expressing the target EGFR mutations. The settings on record: BAF3 EGFR DEL T790M PURO POOL cells, read-out: IC50, BAF3 EGFR DEL T790M PURO POOL. The format is cell-based. How it is done:
(§2) We also assessed the antiproliferative activity of compounds of Formula (I) against BaF3 cells expressing the target EGFR mutations or control (i.e., cell lines expressing wildtype EGFR). Assays were conducted using MTT.

Assay [5] deals with T2, BaF3 cells expressing the target EGFR mutations (Homo sapiens, UniProt P00533, T790M/L858R, cells depend on it).
T2 construct: IC50, BAF3 EGFR L858R-T790M PURO POOL; other: BAF3 EGFR L858R-T790M PURO POOL cells, MTT; IC50, BAF3 EGFR L858R-T790M PURO POOL; other: BAF3 EGFR L858R-T790M PURO POOL cells; MTT
T2 sequence (P00533 whole entry T790M/L858R): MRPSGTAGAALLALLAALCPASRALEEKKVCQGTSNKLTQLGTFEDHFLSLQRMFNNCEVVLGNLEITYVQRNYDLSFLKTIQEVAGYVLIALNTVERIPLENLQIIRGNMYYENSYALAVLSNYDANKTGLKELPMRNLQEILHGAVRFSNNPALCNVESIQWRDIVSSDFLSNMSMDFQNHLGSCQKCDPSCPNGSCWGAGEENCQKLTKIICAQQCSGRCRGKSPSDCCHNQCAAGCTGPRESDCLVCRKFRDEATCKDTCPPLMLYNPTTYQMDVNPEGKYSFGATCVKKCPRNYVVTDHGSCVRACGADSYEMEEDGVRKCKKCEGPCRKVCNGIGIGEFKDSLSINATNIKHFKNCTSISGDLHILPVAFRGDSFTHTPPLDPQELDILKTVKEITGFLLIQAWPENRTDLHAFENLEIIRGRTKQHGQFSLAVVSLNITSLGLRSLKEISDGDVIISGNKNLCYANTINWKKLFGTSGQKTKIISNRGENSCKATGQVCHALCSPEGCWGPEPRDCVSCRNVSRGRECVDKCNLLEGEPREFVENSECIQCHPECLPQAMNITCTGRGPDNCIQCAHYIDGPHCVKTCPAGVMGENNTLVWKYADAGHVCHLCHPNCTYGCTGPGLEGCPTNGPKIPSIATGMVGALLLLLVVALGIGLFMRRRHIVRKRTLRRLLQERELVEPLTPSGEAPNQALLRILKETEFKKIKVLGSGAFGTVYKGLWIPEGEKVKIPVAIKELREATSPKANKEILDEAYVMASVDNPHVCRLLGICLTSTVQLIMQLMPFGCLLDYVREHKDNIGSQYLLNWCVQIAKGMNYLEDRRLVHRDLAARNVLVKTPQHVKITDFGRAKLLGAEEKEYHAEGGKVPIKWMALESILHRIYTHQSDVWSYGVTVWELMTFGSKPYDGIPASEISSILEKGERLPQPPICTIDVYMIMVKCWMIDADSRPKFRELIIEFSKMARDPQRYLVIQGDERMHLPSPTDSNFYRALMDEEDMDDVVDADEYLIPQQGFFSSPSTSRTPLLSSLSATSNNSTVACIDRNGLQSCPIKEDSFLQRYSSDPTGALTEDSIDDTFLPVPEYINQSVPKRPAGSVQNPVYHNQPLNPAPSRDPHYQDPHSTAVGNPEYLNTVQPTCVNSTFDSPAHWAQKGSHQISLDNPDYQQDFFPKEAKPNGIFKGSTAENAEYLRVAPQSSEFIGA
The assay is described as above. The format is cell-based. The following applies: BAF3 EGFR L858R-T790M PURO POOL cells, read-out: IC50, BAF3 EGFR L858R-T790M PURO POOL. How it is done: as §2

For assay [6], the system named is BaF3 cells expressing wildtype EGFR. Nature of the assay: Antiproliferative activity (MTT) against control BaF3 cells expressing wildtype EGFR. In kind it is cell-based. The settings on record: Mus musculus. Here is the method:
as §2

[7] abbreviates: EGFR L858R/T790M double mutation.
Where [8] appears, read: 10 pt curves, 3 μM top concentration.

human EGFR (native sequence), sequence (P00533 25-1210): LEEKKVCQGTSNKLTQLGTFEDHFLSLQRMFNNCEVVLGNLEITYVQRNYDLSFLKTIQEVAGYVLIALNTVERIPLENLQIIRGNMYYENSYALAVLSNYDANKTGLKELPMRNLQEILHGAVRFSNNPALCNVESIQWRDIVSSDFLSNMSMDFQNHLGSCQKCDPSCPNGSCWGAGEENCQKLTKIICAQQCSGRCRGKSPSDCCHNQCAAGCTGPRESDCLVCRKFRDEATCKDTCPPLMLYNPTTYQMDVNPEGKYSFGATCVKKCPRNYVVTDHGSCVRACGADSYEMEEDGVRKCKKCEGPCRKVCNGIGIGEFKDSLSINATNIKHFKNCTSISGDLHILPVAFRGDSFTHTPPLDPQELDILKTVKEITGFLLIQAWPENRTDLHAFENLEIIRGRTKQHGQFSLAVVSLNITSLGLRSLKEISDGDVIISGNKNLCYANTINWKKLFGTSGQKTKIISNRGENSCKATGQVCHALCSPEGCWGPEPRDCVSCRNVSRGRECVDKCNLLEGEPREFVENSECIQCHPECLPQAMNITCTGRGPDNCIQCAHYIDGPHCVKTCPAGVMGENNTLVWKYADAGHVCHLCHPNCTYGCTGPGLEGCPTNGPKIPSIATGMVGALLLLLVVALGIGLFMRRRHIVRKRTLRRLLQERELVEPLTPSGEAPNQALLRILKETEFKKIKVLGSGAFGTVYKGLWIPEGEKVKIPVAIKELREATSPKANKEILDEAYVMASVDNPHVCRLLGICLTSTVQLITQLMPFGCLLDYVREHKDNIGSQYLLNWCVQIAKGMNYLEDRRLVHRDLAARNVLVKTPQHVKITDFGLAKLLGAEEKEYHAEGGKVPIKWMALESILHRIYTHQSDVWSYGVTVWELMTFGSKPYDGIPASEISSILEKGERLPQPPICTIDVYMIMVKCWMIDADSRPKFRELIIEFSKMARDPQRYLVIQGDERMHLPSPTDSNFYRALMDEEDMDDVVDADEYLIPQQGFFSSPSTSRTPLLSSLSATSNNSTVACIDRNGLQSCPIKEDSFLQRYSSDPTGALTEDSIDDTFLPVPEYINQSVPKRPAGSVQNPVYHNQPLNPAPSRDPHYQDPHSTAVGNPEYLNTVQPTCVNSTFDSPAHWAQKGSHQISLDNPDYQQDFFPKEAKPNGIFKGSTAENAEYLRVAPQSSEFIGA

As for `C=CC(=O)Nc1cc(Nc2ncc(Cl)c(Nc3ccccc3P(C)(C)=O)n2)c(OC)cc1N1CCN(C2CCN(C)CC2)CC1` [Example 27, N-(5-((5-chloro-4-((2-(dimethylphosphoryl)phenyl)amino)pyrimidin-2-yl)amino)-4-methoxy-2-(4-(1-methylpiperidin-4-yl)piperazin-1-yl)phenyl)acrylamide], the IC50 in assay [1] (human EGFR native sequence) was less than 50 nM; in assay [2] (EGFR L858R), less than 50 nM; in assay [3] (setting [7]), less than 50 nM; in assay [6] (BAF3 PARENTAL cells (control)), no less than 250 nM. Further, the GI50 in assay [4] is 50 to 100 nM; in assay [5], 101 to 250 nM.

Regarding `C=CC(=O)Nc1cc(Nc2ncc(Cl)c(Nc3ccccc3P(C)(C)=O)n2)c(C)cc1C#CCN(C)C` [Example 151, N-(5-((5-chloro-4-((2-(dimethylphosphoryl)phenyl)amino)pyrimidin-2-yl)amino)-2-(3-(dimethylamino)prop-1-yn-1-yl)-4-methylphenyl)acrylamide], the IC50 in assay [1] (setting [8]) is less than 50 nM; in assay [2] (setting [8]) it was less than 50 nM; in assay [3] (setting [8]), less than 50 nM; in assay [6] (BAF3 parental cells) it was no less than 250 nM. For the same molecule, the GI50 in assay [4] and in assay [5] was less than 50 nM in each case.

Take `COc1ccc(NC(=O)/C=C\C(=O)N(C)C)cc1Nc1ncc(Cl)c(Nc2ccccc2P(C)(C)=O)n1` [Example 62, N1-(3-((5-chloro-4-((2-(dimethylphosphoryl)phenyl)amino)pyrimidin-2-yl)amino)-4-methoxyphenyl)-N4,N4-dimethylmaleamide]: the IC50 in assay [1] (human EGFR native sequence), in assay [2] (EGFR L858R), in assay [3] (setting [7]) and in assay [6] (BAF3 PARENTAL cells (control)) was no less than 250 nM in each case. Further, the GI50 in assay [4] and in assay [5] was no less than 250 nM each time.

With `COc1ccc(NC(=O)CCl)cc1Nc1ncc(Cl)c(Nc2ccccc2P(C)(C)=O)n1` [Example 137, 2-chloro-N-(3-((5-chloro-4-((2-(dimethylphosphoryl)phenyl)amino)pyrimidin-2-yl)amino)-4-methoxyphenyl)acetamide], the IC50 in assay [1] (setting [8]) is less than 50 nM; in assay [2] (setting [8]) it was less than 50 nM; in assay [3] (setting [8]), less than 50 nM; in assay [6] (BAF3 parental cells), no less than 250 nM. The GI50 in assay [4] and in assay [5] was less than 50 nM each time.

Regarding `C=CC(=O)Nc1cc(Nc2ncc(Cl)c(Nc3ccccc3P(C)(C)=O)n2)c(Cl)cc1OC(COC)CN(C)C` (stereo not drawn) [Example 145, N-(4-chloro-5-((5-chloro-4-((2-(dimethylphosphoryl)phenyl)amino)pyrimidin-2-yl)amino)-2-((1-(dimethylamino)-3-methoxypropan-2-yl)oxy)phenyl)acrylamide], the half-inhibitory concentration (IC50) was less than 50 nM in assay [1] (setting [8]), less than 50 nM in assay [2] (setting [8]), less than 50 nM in assay [3] (setting [8]) and no less than 250 nM in assay [6] (BAF3 parental cells). The GI50 in assay [4] and in assay [5] was less than 50 nM in each case.

As for `C=CC(=O)Nc1cc(Nc2ncc(Cl)c(Nc3ccccc3P(C)(C)=O)n2)c(OC)cc1N1CCC(N2CCN(C)CC2)C1` (stereo not drawn) [Example 37, N-(5-((5-chloro-4-((2-(dimethylphosphoryl)phenyl)amino)pyrimidin-2-yl)amino)-4-methoxy-2-(3-(4-methylpiperazin-1-yl)pyrrolidin-1-yl)phenyl)acrylamide], the IC50 was less than 50 nM in assay [1] (human EGFR native sequence), less than 50 nM in assay [2] (EGFR L858R), less than 50 nM in assay [3] (setting [7]) and no less than 250 nM in assay [6] (BAF3 PARENTAL cells (control)). In addition, the GI50 in assay [4] lay in the range of 50 to 100 nM; in assay [5] it was 101 to 250 nM.

Turning to `COc1ccc(NC(=O)/C=C/CN2CCCCC2)cc1Nc1ncc(Cl)c(Nc2ccccc2P(C)(C)=O)n1` [Example 92, (E)—N-(3-((5-chloro-4-((2-(dimethylphosphoryl)phenyl)amino)pyrimidin-2-yl)amino)-4-methoxyphenyl)-4-(piperidin-1-yl)but-2-enamide], the IC50 was less than 50 nM in assay [1] (human EGFR native sequence), less than 50 nM in assay [2] (EGFR L858R), less than 50 nM in assay [3] (setting [7]) and no less than 250 nM in assay [6] (BAF3 PARENTAL cells (control)). Moreover, the GI50 in assay [4] and in assay [5] was less than 50 nM throughout.

As for `COCC#CC(=O)Nc1cc(Nc2ncc(Cl)c(Nc3ccccc3P(C)(C)=O)n2)c(OC)cc1N1CCOCC1` [Example 105, N-(5-((5-chloro-4-((2-(dimethylphosphoryl)phenyl)amino)pyrimidin-2-yl)amino)-4-methoxy-2-morpholinophenyl)-4-methoxybut-2-ynamide], the IC50 in assay [1] (setting [8]) is less than 50 nM; in assay [2] (setting [8]), less than 50 nM; in assay [3] (setting [8]), less than 50 nM; in assay [6] (BAF3 parental cells) it was no less than 250 nM. For the same molecule, the GI50 in assay [4] and in assay [5] was less than 50 nM in each case.

Consider `C=CC(=O)Nc1cc(Nc2ncc(Cl)c(Nc3ccccc3P(C)(C)=O)n2)c(OC)cc1N1CCC(N2CCOCC2)C1` (stereo not drawn) [Example 28, N-(5-((5-chloro-4-((2-(dimethylphosphoryl)phenyl)amino)pyrimidin-2-yl)amino)-4-methoxy-2-(3-morpholinopyrrolidin-1-yl)phenyl)acrylamide], for which the IC50 in assay [1] (human EGFR native sequence) was less than 50 nM; in assay [2] (EGFR L858R), less than 50 nM; in assay [3] (setting [7]), less than 50 nM; in assay [6] (BAF3 PARENTAL cells (control)), no less than 250 nM. For the same molecule, the GI50 in assay [4] and in assay [5] was less than 50 nM throughout.

On to `COc1cc(N2CCOCC2)c(NC(=O)C#CCN(C)C)cc1Nc1ncc(Cl)c(Nc2ccccc2P(C)(C)=O)n1` [Example 104, N-(5-((5-chloro-4-((2-(dimethylphosphoryl)phenyl)amino)pyrimidin-2-yl)amino)-4-methoxy-2-morpholinophenyl)-4-(dimethylamino)but-2-ynamide], for which the IC50 is less than 50 nM in assay [1] (setting [8]), less than 50 nM in assay [2] (setting [8]), less than 50 nM in assay [3] (setting [8]) and no less than 250 nM in assay [6] (BAF3 parental cells). The GI50 in assay [4] and in assay [5] was less than 50 nM each time.

On to `C=CC(=O)Nc1ccc(OC)c(Nc2ncc(Cl)c(Nc3ccc(OCCOC)cc3P(C)(C)=O)n2)c1` [Example 86, N-(3-((5-chloro-4-((2-(dimethylphosphoryl)-4-(2-methoxyethoxy)phenyl)amino)pyrimidin-2-yl)amino)-4-methoxyphenyl)acrylamide], for which the IC50 in assay [1] (human EGFR native sequence) was 50 to 100 nM; in assay [2] (EGFR L858R) it was less than 50 nM; in assay [3] (setting [7]), less than 50 nM; in assay [6] (BAF3 PARENTAL cells (control)), no less than 250 nM. In addition, the GI50 in assay [4] was less than 50 nM; in assay [5], 50 to 100 nM.

`C=CC(=O)Nc1ccc(OC)c(Nc2ncc(Cl)c(Nc3ccc(OCCCN(C)C)cc3P(C)(C)=O)n2)c1` [Example 126, N-(3-((5-chloro-4-((4-(3-(dimethylamino)propoxy)-2-(dimethylphosphoryl)phenyl)amino)pyrimidin-2-yl)amino)-4-methoxyphenyl)acrylamide]: the IC50 in assay [1] (setting [8]) is less than 50 nM; in assay [2] (setting [8]), less than 50 nM; in assay [3] (setting [8]), less than 50 nM; in assay [6] (BAF3 parental cells), no less than 250 nM. Besides, the GI50 in assay [4] and in assay [5] was less than 50 nM each time.

Consider `C=CC(=O)Nc1cc(Nc2ncc(Cl)c(Nc3ccccc3P(C)(C)=O)n2)c(OC)cc1OC1CCCN(CCOC)C1` (stereo not drawn) [Example 123, N-(5-((5-chloro-4-((2-(dimethylphosphoryl)phenyl)amino)pyrimidin-2-yl)amino)-4-methoxy-2-((1-(2-methoxyethyl)piperidin-3-yl)oxy)phenyl)acrylamide], for which the IC50 in assay [1] (setting [8]) is less than 50 nM; in assay [2] (setting [8]), less than 50 nM; in assay [3] (setting [8]), less than 50 nM; in assay [6] (BAF3 parental cells) it was no less than 250 nM. The GI50 in assay [4] and in assay [5] was less than 50 nM throughout.

For `C=C(Cl)C(=O)Nc1ccc(OC)c(Nc2ncc(Cl)c(Nc3ccccc3P(C)(C)=O)n2)c1` [Example 132, 2-chloro-N-(3-((5-chloro-4-((2-(dimethylphosphoryl)phenyl)amino)pyrimidin-2-yl)amino)-4-methoxyphenyl)acrylamide], the IC50 in assay [1] (setting [8]) is less than 50 nM; in assay [2] (setting [8]) it was less than 50 nM; in assay [3] (setting [8]) it was less than 50 nM; in assay [6] (BAF3 parental cells), no less than 250 nM. Further, the GI50 was less than 50 nM in assay [4] and 101 to 250 nM in assay [5].
